Experimental data taken from ChEMBL document CHEMBL4800729 (2021).

Experiments:
[1] = target: Protein-tyrosine kinase 6 (Homo sapiens) (UniProt Q13882); experiment: BRK(h) Millipore kinase panel; conditions: Compound concentration 1.0 uM
[2] = target: Ephrin type-A receptor 7 (Homo sapiens) (UniProt Q15375); experiment: EphA7(h) Millipore kinase panel; conditions: Compound concentration 1.0 uM
[3] = target: TGF-beta receptor type-2 (Homo sapiens) (UniProt P37173); experiment: TGFBR2(h) Millipore kinase panel; conditions: Compound concentration 1.0 uM
Chain of TGF-beta receptor type-2 (Homo sapiens) (P37173 whole entry): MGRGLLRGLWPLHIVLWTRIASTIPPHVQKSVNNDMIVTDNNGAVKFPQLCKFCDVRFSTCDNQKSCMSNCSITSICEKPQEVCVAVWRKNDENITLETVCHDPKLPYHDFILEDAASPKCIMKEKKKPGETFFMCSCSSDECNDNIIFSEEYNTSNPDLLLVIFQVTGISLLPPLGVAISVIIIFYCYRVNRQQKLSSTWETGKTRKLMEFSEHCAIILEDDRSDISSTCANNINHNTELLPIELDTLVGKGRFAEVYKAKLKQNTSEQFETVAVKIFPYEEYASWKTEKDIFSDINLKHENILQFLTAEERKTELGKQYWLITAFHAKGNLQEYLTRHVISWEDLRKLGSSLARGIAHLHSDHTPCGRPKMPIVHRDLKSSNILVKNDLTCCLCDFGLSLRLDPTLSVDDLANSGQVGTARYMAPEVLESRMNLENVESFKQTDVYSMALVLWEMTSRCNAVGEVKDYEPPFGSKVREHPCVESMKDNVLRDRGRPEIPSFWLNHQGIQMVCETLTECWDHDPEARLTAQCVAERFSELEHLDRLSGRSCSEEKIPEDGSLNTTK

[4] = target: Serine/threonine-protein kinase 35 (Homo sapiens) (UniProt Q8TDR2); experiment: CLIK1(h) Millipore kinase panel; conditions: Compound concentration 1.0 uM
Chain of Serine/threonine-protein kinase 35 (Homo sapiens) (Q8TDR2 whole entry): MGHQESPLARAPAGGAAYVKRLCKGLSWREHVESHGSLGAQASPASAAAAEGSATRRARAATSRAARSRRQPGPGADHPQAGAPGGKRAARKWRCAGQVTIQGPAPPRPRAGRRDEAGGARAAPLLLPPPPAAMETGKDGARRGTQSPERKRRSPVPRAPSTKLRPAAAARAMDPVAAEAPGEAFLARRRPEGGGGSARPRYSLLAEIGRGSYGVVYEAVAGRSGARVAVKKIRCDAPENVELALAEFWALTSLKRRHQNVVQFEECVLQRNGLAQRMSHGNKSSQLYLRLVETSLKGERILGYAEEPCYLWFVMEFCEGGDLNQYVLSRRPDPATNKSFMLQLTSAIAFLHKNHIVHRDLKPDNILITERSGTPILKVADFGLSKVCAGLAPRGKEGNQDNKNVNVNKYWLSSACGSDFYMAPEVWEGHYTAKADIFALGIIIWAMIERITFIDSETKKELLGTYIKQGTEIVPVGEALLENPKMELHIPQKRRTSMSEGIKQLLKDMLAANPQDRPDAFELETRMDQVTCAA

Homo sapiens = species on record: Homo sapiens; conditions: Compound concentration 10.0 uM
[5] = target: Serine/threonine-protein kinase 32A (Homo sapiens) (UniProt Q8WU08); experiment: STK32A(h) Millipore kinase panel; conditions: Compound concentration 1.0 uM
[6] = target: Serine/threonine-protein kinase 38-like (Homo sapiens) (UniProt Q9Y2H1); experiment: NDR2(h) Millipore kinase panel; conditions: Compound concentration 1.0 uM
[7] = target: 5-hydroxytryptamine receptor 2C (Homo sapiens) (UniProt P28335); conditions: Compound concentration 10.0 uM
Chain of 5-hydroxytryptamine receptor 2C (Homo sapiens) (P28335 whole entry): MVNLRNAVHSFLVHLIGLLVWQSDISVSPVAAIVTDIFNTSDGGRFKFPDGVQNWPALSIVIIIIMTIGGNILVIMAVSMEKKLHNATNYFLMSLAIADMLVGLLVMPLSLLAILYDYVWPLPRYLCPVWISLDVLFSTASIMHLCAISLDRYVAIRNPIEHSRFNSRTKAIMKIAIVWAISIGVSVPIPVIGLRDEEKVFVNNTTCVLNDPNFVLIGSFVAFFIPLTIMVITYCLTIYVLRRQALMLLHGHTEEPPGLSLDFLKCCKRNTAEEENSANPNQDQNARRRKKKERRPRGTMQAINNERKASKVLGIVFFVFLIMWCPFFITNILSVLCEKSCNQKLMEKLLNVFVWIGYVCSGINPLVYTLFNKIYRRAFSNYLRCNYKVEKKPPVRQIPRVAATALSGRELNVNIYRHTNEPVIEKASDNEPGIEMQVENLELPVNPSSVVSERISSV

[8] = target: Cyclin-dependent kinase 1/cyclin B (Homo sapiens) (UniProt P06493+P14635+Q8WWL7+O95067); experiment: CDK1/cyclinB(h) Millipore kinase panel; assay type: protein-complex assay; conditions: Compound concentration 1.0 uM
[9] = target: Serine/threonine-protein kinase Nek2 (Homo sapiens) (UniProt P51955); experiment: NEK2(h) Millipore kinase panel; conditions: Compound concentration 1.0 uM
Chain of Serine/threonine-protein kinase Nek2 (Homo sapiens) (P51955 whole entry): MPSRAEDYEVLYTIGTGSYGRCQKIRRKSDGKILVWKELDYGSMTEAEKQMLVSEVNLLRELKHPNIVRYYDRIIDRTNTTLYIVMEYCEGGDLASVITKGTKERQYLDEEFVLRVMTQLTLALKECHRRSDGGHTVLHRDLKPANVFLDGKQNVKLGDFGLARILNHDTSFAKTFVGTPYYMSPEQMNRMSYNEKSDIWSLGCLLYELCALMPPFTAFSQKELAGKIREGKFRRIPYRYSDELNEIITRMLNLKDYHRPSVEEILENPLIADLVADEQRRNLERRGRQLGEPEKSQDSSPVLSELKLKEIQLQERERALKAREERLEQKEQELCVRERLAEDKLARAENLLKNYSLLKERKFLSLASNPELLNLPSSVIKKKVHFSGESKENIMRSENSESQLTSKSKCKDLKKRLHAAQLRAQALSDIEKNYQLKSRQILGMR

[10] = target: Cannabinoid receptor 2 (Homo sapiens) (UniProt P34972); conditions: Compound concentration 10.0 uM
[11] = target: Serine/threonine-protein kinase haspin (Homo sapiens) (UniProt Q8TF76); experiment: Haspin(h) Millipore kinase panel; conditions: Compound concentration 1.0 uM
Chain of Serine/threonine-protein kinase haspin (Homo sapiens) (Q8TF76 whole entry): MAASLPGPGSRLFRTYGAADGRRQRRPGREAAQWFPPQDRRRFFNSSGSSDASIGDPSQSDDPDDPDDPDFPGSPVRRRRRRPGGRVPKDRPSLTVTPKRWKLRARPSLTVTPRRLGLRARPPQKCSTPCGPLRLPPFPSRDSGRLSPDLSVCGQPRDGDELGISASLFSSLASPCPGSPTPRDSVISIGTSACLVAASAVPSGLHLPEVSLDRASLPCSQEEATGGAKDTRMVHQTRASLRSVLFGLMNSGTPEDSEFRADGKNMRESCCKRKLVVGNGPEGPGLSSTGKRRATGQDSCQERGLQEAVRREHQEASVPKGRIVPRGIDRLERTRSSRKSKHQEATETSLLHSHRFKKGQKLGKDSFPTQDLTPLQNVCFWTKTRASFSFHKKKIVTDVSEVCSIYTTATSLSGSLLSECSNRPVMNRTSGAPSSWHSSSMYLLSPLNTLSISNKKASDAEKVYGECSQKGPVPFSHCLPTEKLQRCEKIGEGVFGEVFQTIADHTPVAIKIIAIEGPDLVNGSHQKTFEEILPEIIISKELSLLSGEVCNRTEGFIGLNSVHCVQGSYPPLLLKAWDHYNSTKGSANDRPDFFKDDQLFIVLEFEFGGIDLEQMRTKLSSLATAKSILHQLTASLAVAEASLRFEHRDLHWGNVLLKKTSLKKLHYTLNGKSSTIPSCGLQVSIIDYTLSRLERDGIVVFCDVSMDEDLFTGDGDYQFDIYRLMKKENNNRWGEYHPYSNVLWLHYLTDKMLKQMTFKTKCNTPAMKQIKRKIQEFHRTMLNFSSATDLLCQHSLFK

[12] = target: Bone morphogenetic protein receptor type-2 (Homo sapiens) (UniProt Q13873); experiment: BMPR2(h) Millipore kinase panel; conditions: Compound concentration 1.0 uM
[13] = target: 5-hydroxytryptamine receptor 2B (Homo sapiens, UniProt P41595); conditions: Compound concentration 10.0 uM
Chain of 5-hydroxytryptamine receptor 2B (P41595 whole entry): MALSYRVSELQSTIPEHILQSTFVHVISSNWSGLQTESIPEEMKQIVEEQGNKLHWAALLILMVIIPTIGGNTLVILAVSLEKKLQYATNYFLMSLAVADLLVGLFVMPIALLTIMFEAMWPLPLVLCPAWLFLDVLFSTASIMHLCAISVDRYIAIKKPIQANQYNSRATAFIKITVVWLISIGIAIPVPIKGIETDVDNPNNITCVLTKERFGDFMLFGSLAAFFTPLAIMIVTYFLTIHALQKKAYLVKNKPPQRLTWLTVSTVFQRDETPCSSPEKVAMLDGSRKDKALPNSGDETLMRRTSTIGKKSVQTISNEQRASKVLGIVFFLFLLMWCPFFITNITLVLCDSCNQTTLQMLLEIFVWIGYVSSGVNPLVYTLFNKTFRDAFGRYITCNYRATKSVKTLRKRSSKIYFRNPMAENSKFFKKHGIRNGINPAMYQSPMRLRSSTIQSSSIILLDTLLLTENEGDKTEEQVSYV

[14] = target: Serine/threonine-protein kinase MAK (Homo sapiens) (UniProt P20794); experiment: MAK(h) Millipore kinase panel; conditions: Compound concentration 1.0 uM
Chain of Serine/threonine-protein kinase MAK (Homo sapiens) (P20794 whole entry): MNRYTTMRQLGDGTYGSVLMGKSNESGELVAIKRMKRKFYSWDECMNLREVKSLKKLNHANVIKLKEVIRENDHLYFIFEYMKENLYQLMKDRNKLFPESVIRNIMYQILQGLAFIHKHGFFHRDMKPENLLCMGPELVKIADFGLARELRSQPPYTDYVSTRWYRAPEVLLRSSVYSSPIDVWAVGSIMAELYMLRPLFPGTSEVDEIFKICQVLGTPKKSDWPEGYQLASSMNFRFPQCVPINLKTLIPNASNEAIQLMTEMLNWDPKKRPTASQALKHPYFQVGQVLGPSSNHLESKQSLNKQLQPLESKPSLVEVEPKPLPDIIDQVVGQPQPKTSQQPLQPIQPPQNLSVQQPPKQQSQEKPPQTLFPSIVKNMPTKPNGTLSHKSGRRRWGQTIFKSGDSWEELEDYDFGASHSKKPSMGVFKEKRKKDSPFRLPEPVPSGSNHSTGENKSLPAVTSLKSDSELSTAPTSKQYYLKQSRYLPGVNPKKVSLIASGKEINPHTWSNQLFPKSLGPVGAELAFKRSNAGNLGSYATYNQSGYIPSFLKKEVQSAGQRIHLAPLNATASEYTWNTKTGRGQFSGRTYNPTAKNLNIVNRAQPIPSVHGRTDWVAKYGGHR

[15] = target: 5-hydroxytryptamine receptor 1D (Homo sapiens) (UniProt P28221); conditions: Compound concentration 10.0 uM
[16] = target: Muscarinic acetylcholine receptor M4 (Homo sapiens) (UniProt P08173); conditions: Compound concentration 10.0 uM
[17] = target: Acetylcholinesterase (Homo sapiens) (UniProt P22303); conditions: Compound concentration 10.0 uM

Chain of Ephrin type-A receptor 7 (Homo sapiens) (Q15375 28-998 limits assumed): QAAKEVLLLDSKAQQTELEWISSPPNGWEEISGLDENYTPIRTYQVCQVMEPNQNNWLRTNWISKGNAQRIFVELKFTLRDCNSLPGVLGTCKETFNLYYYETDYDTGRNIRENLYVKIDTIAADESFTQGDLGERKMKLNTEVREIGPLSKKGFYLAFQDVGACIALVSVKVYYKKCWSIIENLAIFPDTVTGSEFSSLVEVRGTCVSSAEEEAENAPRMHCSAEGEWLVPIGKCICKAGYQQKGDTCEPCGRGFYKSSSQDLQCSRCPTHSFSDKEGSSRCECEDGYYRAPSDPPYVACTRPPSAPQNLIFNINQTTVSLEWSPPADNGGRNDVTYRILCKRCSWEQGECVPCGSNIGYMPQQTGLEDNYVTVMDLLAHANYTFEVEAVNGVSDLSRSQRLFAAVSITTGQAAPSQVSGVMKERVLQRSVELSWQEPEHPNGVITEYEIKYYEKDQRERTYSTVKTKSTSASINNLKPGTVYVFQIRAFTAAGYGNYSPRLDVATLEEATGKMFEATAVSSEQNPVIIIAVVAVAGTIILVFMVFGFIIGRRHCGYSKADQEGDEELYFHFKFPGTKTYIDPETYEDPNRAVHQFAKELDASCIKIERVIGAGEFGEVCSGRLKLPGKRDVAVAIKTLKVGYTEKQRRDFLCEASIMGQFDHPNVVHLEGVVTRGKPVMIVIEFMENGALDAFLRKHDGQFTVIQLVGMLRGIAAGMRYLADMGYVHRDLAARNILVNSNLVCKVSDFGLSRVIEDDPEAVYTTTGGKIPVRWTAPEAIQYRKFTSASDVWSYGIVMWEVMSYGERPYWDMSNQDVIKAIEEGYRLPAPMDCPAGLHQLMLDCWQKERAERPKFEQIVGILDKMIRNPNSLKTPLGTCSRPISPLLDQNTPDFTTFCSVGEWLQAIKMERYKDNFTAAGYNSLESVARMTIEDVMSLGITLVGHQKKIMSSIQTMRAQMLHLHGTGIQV

**Q.** Which results are given for `CC[C@@H](Nc1c(C#N)c(-c2ccc(-c3cccc(C)c3F)cc2)nc2cnccc12)C(=O)O` [BAY-091]?
**A.** inhibition [1]: 8.07%; inhibition [2]: 2.1%; inhibition [3]: 19.3%; inhibition [4]: 9.55%; inhibition (Homo sapiens): -8%; inhibition [5]: 16%; inhibition [6]: 5.88%; inhibition [7]: 29%; inhibition [8]: 8.82%; inhibition [9]: 15.9%; inhibition [10]: 1%; inhibition [11]: 14.2%; inhibition [12]: 4.45%; inhibition [13]: 98%; inhibition [14]: 9.23%; inhibition [15]: 21.2%; inhibition [16]: 6%; inhibition [17]: 27%
